Like-named read-outs stand apart in the source and are kept apart here.
Experiments:
DU145 (prostate cancer) = test: Effect of compounds on tumor cell lines (assay of Latham et al.), DU145; format: cell-based; settings: DU145 cells, read-out: DU 145 potency (IC50)
Experimental: (§1) The effect of the compounds of the invention on tumor cells was determined by the assay described by Latham et al., Oncogene 12:827-837 (1996). Tumor cells K562 (chronic myelogenous leukaemia) or DU145 (prostate cancer) were plated in 12-well dishes at a cell density of 2.5×10^4 cells well. The plated cells were treated 24 hours later with a compound of the invention dissolved in DMSO at multiple concentrations ranging from 1 μM to 100 μM. The plates were examined 96 hours later under an inverted microscope, Olympus CK-2 using an 10× objective, and compound activity was noted by physical observation. When necessary, the total number of viable cells was determined by trypsinizing the wells and counting the number of viable cells, as determined by trypan blue exclusion, using a hemacytometer.
(§2) The representative compounds listed in Tables 1-5 are shown by way of illustration, and are not intended to limit the scope of the invention. The compounds are prepared and tested by methods based on those described above, except that the compound of Table 5 was dissolved in DMSO at multiple concentrations ranging from 0.1 μM to 100 μM

[1] = tested on: K562 (chronic myelogenous leukaemia); test: Effect of compounds on tumor cell lines (assay of Latham et al.), K562; format: cell-based; settings: K562 cells, read-out: K 562 potency (IC50)
Experimental: as §1, §2

[2] = 96 hours after treatment, 1 μM to 100 μM
[3] = Table 1, examined 96 hours after treatment, 1 μM to 100 μM in DMSO

| IC50 (DU145 (prostate cancer); [2]) [µM] | IC50 [1, 2] [µM] | SMILES | further results |
| --- | --- | --- | --- |
| 10 to 25 | 10 to 25 | Nc1ccc(/C=C(/SCc2ccc(F)cc2)C(=O)c2ccc(C(=O)O)cc2)cc1[N+](=O)[O-] [Example 333] | – |
| – | – | COc1ccccc1C=C(Sc1ccc(Br)cc1)C(=O)c1ccc(Cl)cc1 [Example 25] | IC50 (DU145 (prostate cancer); [3]): 10 to 25 µM; IC50 [1, 3]: 10 to 25 µM |
| – | – | CC(=O)c1ccc(C=C(Sc2ccc(C)cc2)C(=O)c2ccc(Br)cc2)cc1 [Example 87] | IC50 (DU145 (prostate cancer); [3]): 50 to 100 µM; IC50 [1, 3]: 50 to 100 µM |
| – | – | Cc1ccc(SC(=Cc2c[nH]c3ccccc23)C(=O)c2ccc(Br)cc2)cc1 [Example 80] | IC50 (DU145 (prostate cancer); [3]): 10 to 25 µM; IC50 [1, 3]: 10 to 25 µM |
| 1 to 10 | ≤ 1 | O=C(O)c1ccc(C(=O)C(=Cc2ccc(Br)c([N+](=O)[O-])c2)SCc2ccc(F)cc2)cc1 [Example 252] | – |
| 1 to 10 | 25 to 50 | COc1cc(OC)c(C=C(SCc2ccc(Cl)cc2Cl)C(=O)c2ccc(Cl)cc2)c(OC)c1 [Example 116] | – |
| > 100 | > 100 | O=C(O)c1ccc(C(=O)/C(=C\c2ccc(Br)cc2)SCc2ccc(F)cc2)cc1 [Example 334] | – |
| – | – | COc1ccc(C=C(Sc2ccc(F)cc2)C(=O)c2ccc(OC)cc2)cc1 [Example 59] | IC50 (DU145 (prostate cancer); [3]): 25 to 50 µM; IC50 [1, 3]: 1 to 10 µM |
| – | – | O=C(C(=Cc1ccccc1O)Sc1ccccc1Br)c1ccc(Br)cc1 [Example 8] | IC50 (DU145 (prostate cancer); [3]): 50 to 100 µM; IC50 [1, 3]: 50 to 100 µM |
| 1 to 10 | ≤ 1 | O=C(C(=Cc1ccc(C(=O)N2CCN(CCO)CC2)cc1)SCc1ccc(F)cc1)c1ccc(F)c([N+](=O)[O-])c1 [Example 331] | – |
| 1 to 10 | 1 to 10 | CCN(CC)CCNC(=O)c1c(C)[nH]c(/C=C(/SCc2ccc(Br)cc2)C(=O)c2ccc(Br)cc2)c1C [Example 162] | – |
| – | – | Cc1ccc(SC(=Cc2ccc(N(C)C)cc2)C(=O)c2ccc(Cl)cc2)cc1 [Example 102] | IC50 (DU145 (prostate cancer); [3]): > 100 µM; IC50 [1, 3]: > 100 µM |
| 10 to 25 | 10 to 25 | N#Cc1ccc(C(=O)/C(=C\c2ccc(O)c([N+](=O)[O-])c2)SCc2ccc(Br)cc2)cc1 [Example 182] | – |
| 10 to 25 | 1 to 10 | CN1CCN(c2ccc(C=C(SCc3ccc(Br)cc3)C(=O)c3ccc(C(=O)O)cc3)cc2[N+](=O)[O-])CC1 [Example 308] | – |
| 10 to 25 | 1 to 10 | COc1ccc(/C=C(/SCc2ccc(OC)cc2)C(=O)c2ccc(Cl)cc2)cc1 [Example 346] | – |
| 1 to 10 | 1 to 10 | O=C(C(=Cc1ccc(F)c([N+](=O)[O-])c1)SCc1ccc(Br)cc1)c1ccc(C(=O)N2CCN(c3ccc(C(F)(F)F)cn3)CC2)cc1 [Example 315] | – |
| 1 to 10 | 1 to 10 | CN(C)c1ccc(C=C(SCc2ccc(Cl)cc2)C(=O)c2ccc(C(=O)O)cc2)cc1 [Example 209] | – |
| > 100 | 10 to 25 | CN(C)c1ccc(C=C(SCc2ccc(Cl)cc2)C(=O)c2ccc(Cl)cc2)cc1 [Example 210] | – |
| 10 to 25 | 10 to 25 | O=C(C(=Cc1ccc(O)c([N+](=O)[O-])c1)SCc1ccccc1Cl)c1ccc(Cl)cc1 [Example 132] | – |
| 1 to 10 | 1 to 10 | COc1cc(OC)c(C=C(SCc2ccc(F)cc2)C(=O)c2ccc(Br)cc2)c(OC)c1 [Example 233] | – |

| IC50 (DU145 (prostate cancer); [2]) [µM] | IC50 [1, 2] [µM] | SMILES | further results |
| --- | --- | --- | --- |
| – | – | COc1ccc(SC(=Cc2ccc(Cl)cc2Cl)C(=O)c2ccc(Br)cc2)cc1 [Example 61] | IC50 (DU145 (prostate cancer); [3]): 1 to 10 µM; IC50 [1, 3]: 1 to 10 µM |
| – | – | O=C(C(=Cc1c(O)cc(O)cc1O)Sc1ccccc1Br)c1ccc(Cl)cc1 [Example 5] | IC50 (DU145 (prostate cancer); [3]): > 100 µM; IC50 [1, 3]: > 100 µM |
| 10 to 25 | 10 to 25 | COc1ccc(C(=O)/C(=C\c2ccc(O)c([N+](=O)[O-])c2)SCc2ccc(Br)cc2)cc1 [Example 183] | – |
| 10 to 25 | 1 to 10 | O=C(C(=Cc1ccc(Cl)cc1)SCc1ccc(F)cc1)c1ccc(Cl)cc1 [Example 256] | – |
| 10 to 25 | 1 to 10 | COc1ccc(C=C(SCc2ccccc2Cl)C(=O)c2ccc(Cl)cc2)c(OC)c1OC [Example 125] | – |
| > 100 | 50 to 100 | CN(C)c1ccc(C=C(SCc2ccc(Cl)cc2)C(=O)c2ccc([N+](=O)[O-])cc2)cc1 [Example 211] | – |
| 10 to 25 | 1 to 10 | O=C(C(=Cc1ccc([N+](=O)[O-])c(O)c1)SCc1ccc(Br)cc1)c1ccc(Br)cc1 [Example 155] | – |
| 50 to 100 | 25 to 50 | O=C(C(=Cc1ccc(O)cc1O)SCc1cccc(Cl)c1)c1ccc(Br)cc1 [Example 145] | – |
| 25 to 50 | 10 to 25 | Cc1ccc(CSC(=Cc2ccc(F)c(C)c2)C(=O)c2ccc(Cl)cc2)cc1 [Example 291] | – |
| 1 to 10 | 1 to 10 | N#Cc1ccc(C(=O)C(=Cc2ccc([N+](=O)[O-])c(O)c2)SCc2ccc(Br)cc2)cc1 [Example 157] | – |
| – | – | COc1ccc(C(=O)C(=Cc2ccc(Br)cc2)Sc2ccc(F)cc2)cc1 [Example 57] | IC50 (DU145 (prostate cancer); [3]): > 100 µM; IC50 [1, 3]: > 100 µM |
| – | – | O=C(C(=Cc1ccc(F)cc1F)Sc1ccc(Br)cc1)c1ccc(Cl)cc1 [Example 18] | IC50 (DU145 (prostate cancer); [3]): 1 to 10 µM; IC50 [1, 3]: 1 to 10 µM |
| – | – | O=C(C(=Cc1ccc(Cl)c([N+](=O)[O-])c1)Sc1ccc(Br)cc1)c1ccc(Br)cc1 [Example 37] | IC50 (DU145 (prostate cancer); [3]): 1 to 10 µM; IC50 [1, 3]: 1 to 10 µM |
| 50 to 100 | 50 to 100 | Cc1ccc(C=C(SCc2ccc(Cl)cc2Cl)C(=O)c2ccc(Cl)cc2)s1 [Example 124] | – |
| 1 to 10 | ≤ 1 | Cc1ccc(CS/C(=C/c2ccc(F)c([N+](=O)[O-])c2)C(=O)c2ccc(C(=O)O)cc2)cc1 [Example 347] | – |
| 50 to 100 | 50 to 100 | Cc1ccsc1C=C(SCc1ccccc1F)C(=O)c1ccc(Cl)cc1 [Example 134] | – |
| – | – | O=C(C(=Cc1ccccc1F)Sc1ccc(Br)cc1)c1ccc(Cl)cc1 [Example 24] | IC50 (DU145 (prostate cancer); [3]): 10 to 25 µM; IC50 [1, 3]: 1 to 10 µM |
| 50 to 100 | 25 to 50 | CCOC(=O)c1c(C)[nH]c(/C=C(/SCc2ccc(Br)cc2)C(=O)c2ccc(Br)cc2)c1C [Example 170] | – |
| – | – | Cc1ccc(SC(=Cc2c[nH]c3ccccc23)C(=O)c2ccc(Cl)cc2)cc1 [Example 81] | IC50 (DU145 (prostate cancer); [3]): 10 to 25 µM; IC50 [1, 3]: 1 to 10 µM |
| 10 to 25 | 1 to 10 | COc1ccc(CS/C(=C/c2ccc(F)cc2)C(=O)c2ccc(Cl)cc2)cc1 [Example 345] | – |

| IC50 (DU145 (prostate cancer); [2]) [µM] | IC50 [1, 2] [µM] | SMILES | further results |
| --- | --- | --- | --- |
| 10 to 25 | 10 to 25 | CN1CCN(CCNC(=O)c2ccc(C(=O)/C(=C\c3ccc(F)c([N+](=O)[O-])c3)SCc3ccc(F)cc3)cc2)CC1 [Example 337] | – |
| 1 to 10 | 1 to 10 | Cc1ccc(CSC(=Cc2c[nH]c3ccc(Br)cc23)C(=O)c2ccc(Cl)cc2)cc1 [Example 295] | – |
| 1 to 10 | ≤ 1 | O=C(O)c1ccc(C(=O)/C(=C\c2ccc(Cl)c([N+](=O)[O-])c2)SCc2ccc(Br)cc2)cc1 [Example 168] | – |
| 1 to 10 | 1 to 10 | Cc1ccc(CSC(=Cc2ccccc2OCc2ccccc2)C(=O)c2ccc(Cl)cc2)cc1 [Example 274] | – |
| 50 to 100 | 50 to 100 | Cc1ccc(CSC(=Cc2c(O)cc(O)cc2O)C(=O)c2ccc(Cl)cc2)cc1 [Example 272] | – |
| – | – | COc1ccc(C=C(Sc2ccc(Br)cc2)C(=O)c2ccc(Cl)cc2)cc1 [Example 48] | IC50 (DU145 (prostate cancer); [3]): 50 to 100 µM; IC50 [1, 3]: 1 to 10 µM |
| 10 to 25 | 1 to 10 | COc1ccccc1C=C(SCc1ccc(Cl)cc1)C(=O)c1ccc([N+](=O)[O-])cc1 [Example 200] | – |
| 50 to 100 | 50 to 100 | Cc1[nH]c(/C=C(/SCc2ccc(Br)cc2)C(=O)c2ccc(Br)cc2)c(C)c1C(=O)O [Example 167] | – |
| 25 to 50 | 25 to 50 | O=C(O)c1ccc(C(=O)C(=Cc2ccc(O)c(Br)c2)SCc2ccc(Br)cc2)cc1 [Example 150] | – |
| 1 to 10 | 1 to 10 | O=C(C(=Cc1ccc(O)cc1)SCc1ccc(Cl)c(Cl)c1)c1ccc(Cl)cc1 [Example 144] | – |
| 1 to 10 | 1 to 10 | O=C(C(=Cc1ccc([N+](=O)[O-])c(O)c1)SCc1ccc(Br)cc1)c1ccc([N+](=O)[O-])cc1 [Example 158] | – |
| 1 to 10 | 1 to 10 | O=C(C(=Cc1ccc(Br)cc1)SCc1ccc(Cl)cc1)c1ccc(Cl)cc1 [Example 215] | – |
| 10 to 25 | 1 to 10 | COc1ccccc1C=C(SCc1ccc(F)cc1)C(=O)c1ccc(Cl)cc1 [Example 240] | – |
| – | – | Cc1ccc(SC(=Cc2c[nH]c3ccc(Cl)cc23)C(=O)c2ccc(Br)cc2)cc1 [Example 107] | IC50 (DU145 (prostate cancer); [3]): 1 to 10 µM; IC50 [1, 3]: 1 to 10 µM |
| > 100 | > 100 | CSc1ccc(C=C(SCc2ccc(Cl)cc2)C(=O)c2ccc(C(=O)O)cc2)cc1 [Example 223] | – |
| 10 to 25 | 10 to 25 | O=C(/C(=C\c1ccc([N+](=O)[O-])c(O)c1)SCc1ccc(Br)cc1)c1cc(Cl)ccc1O [Example 161] | – |
| – | – | COc1ccccc1/C=C(\C(=O)c1ccc(Cl)cc1)S(=O)(=O)Cc1ccc(C)cc1 [Example 428] | IC50 (DU145 (prostate cancer); Homo sapiens, DU-145, Table 4, examined 96 hours after treatment, 1 μM to 100 μM in DMSO): 10 to 25 µM; IC50 ([1]; Homo sapiens, Table 4, examined 96 hours after treatment, 1 μM to 100 μM in DMSO): 10 to 25 µM |
| 1 to 10 | 10 to 25 | O=C(C(=Cc1ccc(OCc2ccccc2)cc1)SCc1ccc(Cl)cc1Cl)c1ccc(Cl)cc1 [Example 121] | – |
